Where a name gives a salt, the structure may show the parent alone. Read-outs that look alike come from different tables or passages of the source.
How the values were obtained:
[1] = tested on: human lung carcinoma epithelial cells A549; type: cell-based
Protocol: (§1) DICAM’s cytotoxicity was determined employing a modified MTT assay as described elsewhere ([Antúnez-Mojica et al., 2016]) using human lung carcinoma epithelial cells A549, human fetal lung fibroblasts IMR-90, and human HeLa cervix carcinoma cells treated with increasing concentrations of DICAMs (0.8–200 µM range). A549 cells were grown in RPMI 1640 (Gibco; Fisher Scientific, Spain) supplemented with 10% FCS, 2 mM glutamine, 100 IU/mL penicillin and 100 μg/mL streptomycin. IMR-90 and HeLa cells were cultured in DMEM (Gibco; Fisher Scientific, Spain) supplemented with 10% FCS, 2 mM L-glutamine, 1 mM pyruvate, […] penicillin, 100 μg/mL streptomycin and 40 μg/mL gentamycin. Cell viability was assessed after 48 h exposure to DICAMs. Vinblastine was used as a positive control. IC50 value is the concentration that gives 50% inhibition of cell growth and was determined using SigmaPlot (Systat) fitting to a Four Parameter Logistic curve.

[2] = tested on: human HeLa cervix carcinoma cells; type: cell-based
Protocol: as §1

Escherichia coli DH10B = test: Resting-cell viability (CFU) with 0.5 mM EDTA; type: cell-based; parameters: key to CFU's decay in the presence of 0.5 mM EDTA, Ec (data in parenthesis): (+) CFU, decay ∼1 log-unit; (−) ≤ 0.3 log-units; conditions: for Decrease in bacterial viability compared to controls in EDTA-containing buffer, E. coli: 100 µM, 20 mM Tris-HCl pH 7.5, 3 h, 37°C; for CFU's decay in the presence of 0.5 mM EDTA, Ec (data in parenthesis): E. coli DH10B, 100 µM compound, 3 h incubation
Protocol: (§2) Addition of tested compounds to the culture medium had little or no effect on bacterial growth, even at a concentration of 100 μM (Table 1). Since inactivity could arise from the inability of DICAMs to cross the outer membrane, we next tested their effect on bacterial suspensions in the absence or the presence of 0.5 mM EDTA, an outer membrane permeating agent. A decrease of approximately 90% in bacterial viability was observed after 3 h treatment with DICAM 2 and DICAM 4, compared to controls in EDTA-containing buffer (Supplementary Figure S5). No variations were found with the other compounds tested (Table 1), showing that only DICAMs containing Ala/Asn- Pro -Glu tripeptides were able to access the cell membrane and kill these pathogens when the outer membrane permeability was enhanced.
(§3) For activity assays on resting cells, bacteria grown to exponential phase (OD600 ≈ 0.3) were centrifuged and washed with 20 mM Tris-HCl (pH 7.5), adjusting the final OD600 to ≈0.6 (≈10^8 CFU/mL) with the same buffer. If required, EDTA (0.5 mM final concentration) was next added and the bacterial suspension was dispensed (225 µL per well) in 96-well plates, and then treated with 100 µM DICAM (25 µL). Samples were incubated at 37°C for 3 h and turbidity measurements were taken at selected intervals, also measuring the decay in cell viability at the end of incubation. Controls with buffer (with and without 1% DMSO), 100 µM DICAM, or 0.5 mM EDTA were run in parallel.

[3] = Calcein release from LUVs; conditions: 10 μM DICAM, 25°C; for Permeation of DOPE:POPG:CL (80:15:5) LUVs, result in words: vesicle buffer pH 7.4, calcein release; for Leak of calcein from pure POPG LUVs, result in words: vesicle buffer (10 mM Tris, 140 mM NaCl, 0.5 mM EDTA, pH 7.4), fluorescence 480/550 nm, normalised to 0.025% Triton-X100
Protocol: LUVs were prepared for calceine liberation assays as described ([Chongsiriwatana and Barron, 2009]). Lipid composition (mole %) of LUVs was: POPG (100), POPG:CL (80:20), POPG:CL:DOPE ([…]), and POPG:CL:GlcDAG (75:5:20). Briefly, the nitrogen-dried lipid mixture was dissolved at 1.25 mM with 100 mM calceine in vesicle buffer (10 mM Tris, 140 mM NaCl, 0.5 mM EDTA, pH 7.4) followed by five thaw-freeze cycles. Calceine-entrapped LUVs were prepared by extrusion through 100 nm polycarbonate membranes (Avanti Polar Lipids). Non-entrapped calceine was separated from LUVs by gel filtration on a Sephacryl® S200-HR column (Sigma). LUVs permeabilization was monitored at 25°C by fluorescence emission at 550 nm (λex = 480 nm) as a function of time in a Fluoromax-4 spectrofluorometer (Horiba, France) using agitation. Signal stabilization of samples (1,500 µL vesicle buffer plus 45 µL LUVs) was recorded for 5 min before 10 µM final DICAM addition, and calcein release was monitored for a maximum of 20 min. After incubation, samples were solubilized in Triton X-100 (0.025%) and the fluorescence signal recorded thereafter was used to normalize the entire data set. Solubilization of DICAM-untreated LUVs in Triton X-100 was used as a positive control. No perturbation was detected in controls containing DMSO.

[4] = tested on: Pseudomonas aeruginosa PAO1; test: Resting-cell viability (CFU) with 0.5 mM EDTA; type: cell-based; parameters: key to CFU's decay in the presence of 0.5 mM EDTA, Pa (data in parenthesis): (+) CFU, decay ∼1 log-unit; (−) ≤ 0.3 log-units; conditions: for CFU's decay in the presence of 0.5 mM EDTA, Pa (data in parenthesis): P. aeruginosa PAO1, 100 µM compound, 3 h incubation; for Decrease in bacterial viability compared to controls in EDTA-containing buffer, P. aeruginosa: P. aeruginosa PAO1, 100 µM, 20 mM Tris-HCl pH 7.5, 3 h, 37°C
Protocol: as §2, §3

S. aureus T = test: Growth inhibition and bacterial survival at 100 µM (Figure 6); type: cell-based, Staphylococcus aureus; conditions: 100 µM compound, BHI, 37°C; for S. aureus T growth, % of controls: five or more hours of incubation, increment in OD600 vs controls
Protocol: FIGURE 6 Antimicrobial effect of DICAMs active on S. aureus ^T. (A) Growth inhibition after culture challenge at 37°C with 100 μM of compound for 2, 5, and 6.5 h in BHI. Bars represent the percentage of the increment in OD600 for treated samples compared to controls and color goes from light to dark as time increases. “X” represents Ala, Asn, Glu or Orn. (B) Dependence of the kinetics of growth (OD600) (left panel) and bacterial population (right panel) on DICAM 14 dose. Bars in light and dark grey show bacterial populations of the initial inoculum and after incubation (3 and 5 h, respectively). Data shown are the average of three replicates, with error bars indicating the standard deviation of the mean.
Susceptibility to DICAMs was first tested by growth-inhibition assays at 50 and 100 μM of compound. Briefly, working solutions at 5 mM or 10 mM DICAM in pure DMSO were prepared from DICAM stocks (40 mM in pure DMSO) and diluted with fresh culture medium to 5× the desired final concentration. Aliquots (50 µL) of these solutions were added to 200 µL of bacterium cultures grown to early exponential phase (OD550/600 c. a. 0.15–0.2 in sterile 96-well plates (Cultek, Spain). Incubation continued for 10 h at 37°C and turbidity (OD550/600) values were measured every 20 min to monitor growth and lysis, using a VersaMax microplate reader (Molecular Devices; United Kingdom). Next, the activity dependence on DICAM’s dose was examined by measuring the turbidity of treated and untreated cultures as a function of time. Also, the decay of bacterial viability (CFU/mL) at selected times of treatment was assessed by colony counting on LB-agar or TSA plates after overnight incubation at 37°C. By default, 10 μL of 10-fold serially diluted samples were plated, which set the lower detection limit at 10^2 CFU/mL (10^1 CFU/mL when 100 μL of the undiluted sample was seeded).

Row | Compound | IC50 ([1]; 48 h) | IC50 ([2]; 48 h) | CFU's decay in the presence of 0.5 mM EDTA, Ec (data in parenthesis) (Escherichia coli DH10B) | CFU's decay in the presence of 0.5 mM EDTA, Pa (data in parenthesis) [4] | other results
1 | CCCCCCCCCCCCCCCCCCNC(=O)[C@H](CCC(=O)O)NC(=O)[C@H]1CCCN1C(=O)[C@H](CC(N)=O)NC(=O)OCc1ccccc1 [DICAM 1, Cbz-Asn- Pro -Glu-NH-C18H37] | 45 ± 6 µM | 29 ± 2 µM |  |  | 
2 | CCCCCCCCCCCCCCCCCCNC(=O)[C@H](CCC(=O)O)NC(=O)[C@H]1CCCN1C(=O)[C@@H](N)CC(N)=O [DICAM 2, Asn- Pro -Glu-NH-C18H37 ·HCl] | 42 ± 5 µM | 42 ± 2 µM | (+) | (+) | Decrease in bacterial viability compared to controls in EDTA-containing buffer, E. coli (Escherichia coli DH10B): approximately 90%; Permeation of DOPE:POPG:CL (80:15:5) LUVs, result in words [3]: did not permeate; Decrease in bacterial viability compared to controls in EDTA-containing buffer, P. aeruginosa [4]: approximately 90%
3 | CCCCCCCCCCCCCCCCCCNC(=O)[C@H](CCC(=O)O)NC(=O)[C@H]1CCCN1C(=O)[C@H](C)NC(=O)OCc1ccccc1 [DICAM 3, Cbz-Ala- Pro -Glu-NH-C18H37] | 59.2 ± 0.7 µM | 49.2 ± 1.5 µM | (−) ((−) ≤ 0.3 log-units) | (−) ((−) ≤ 0.3 log-units) | 
4 | CCCCCCCCCCCCCCCCCCNC(=O)[C@H](CCC(=O)O)NC(=O)[C@H]1CCCN1C(=O)[C@H](C)N [DICAM 4, Ala- Pro -Glu-NH-C18H37 ·HCl] | ≥ 25 µM | 32 ± 2 µM | (+) | (+) | S. aureus T growth, % of controls (S. aureus T): ≈ 25 % of controls; Decrease in bacterial viability compared to controls in EDTA-containing buffer, E. coli (Escherichia coli DH10B): approximately 90%; Leak of calcein from pure POPG LUVs, result in words [3]: full; Permeation of DOPE:POPG:CL (80:15:5) LUVs, result in words [3]: did not permeate; Decrease in bacterial viability compared to controls in EDTA-containing buffer, P. aeruginosa [4]: approximately 90%
5 | CCCCCCCCCCCCCCCCNC(=O)[C@H](CCC(=O)O)NC(=O)[C@H]1CCCN1C(=O)[C@H](CC(N)=O)NC(=O)OCc1ccccc1 [DICAM 10, Cbz-Asn- Pro -Glu-NH-C16H33] | 35 ± 2 µM | 28 ± 0.7 µM |  |  | 
6 | CCCCCCCCCCCCCCCCCCNC(=O)[C@H](C)NC(=O)[C@H]1CCCN1C(=O)[C@H](C)N [DICAM 14, Ala- Pro -Ala-NH-C18H37 · HCl] | 8 ± 0.3 µM | 6.3 ± 0.7 µM | (−) ((−) ≤ 0.3 log-units) | (−) ((−) ≤ 0.3 log-units) | Permanent fall in bacterial survival (S. aureus T; S. aureus T, 5 h incubation): ≈ 85%
7 | CCCCCCCCCCCCCCCCCCNC(=O)[C@H](CCC(=O)O)NC(=O)[C@H]1CCCN1C(=O)[C@H](CCC(=O)O)NC(=O)OCc1ccccc1 [DICAM 19, Cbz-Glu- Pro -Glu-NH-C18H37] | 45 ± 2 µM | 46 ± 2 µM |  |  | 
8 | CCCCCCCCCCCCCCCCCCNC(=O)[C@H](CCC(=O)O)NC(=O)[C@H]1CCCN1C(=O)[C@@H](N)CCC(=O)O [DICAM 20, Glu- Pro -Glu-NH-C18H37 · HCl] | 91 ± 2 µM | 59.2 ± 0.1 µM |  |  | Leak of calcein from pure POPG LUVs, result in words [3]: partial
9 | CCCCCCCCCCCCCCCCCCNC(=O)[C@H](CCC(=O)O)NC(=O)[C@H]1CCCN1C(=O)[C@H](CCCN)NC(=O)OCc1ccccc1 [DICAM 21, Cbz-Orn- Pro -Glu-NH-C18H37] |  |  |  |  | Permeation of DOPE:POPG:CL (80:15:5) LUVs, result in words [3]: able to permeate and release calcein
10 | CCCCCCCCCCCCCCCCCCNC(=O)[C@H](CCC(=O)O)NC(=O)[C@H]1CCCN1C(=O)[C@@H](N)CCCN [DICAM 22, Orn- Pro -Glu-NH-C18H37 · HCl] | 59.6 ± 0.9 µM | 57.2 ± 0.4 µM |  |  | 
11 | CCCCCCCCCCCCCCCCCCNC(=O)[C@H](CCC(=O)O)NC(=O)[C@H]1CCCN1C(=O)[C@H](C)NC(C)=O [DICAM 24, Ac-Ala- Pro -Glu-NH-C18H37] | 40 ± 3 µM | 28.4 ± 0.2 µM | (−) ((−) ≤ 0.3 log-units) |  | 
12 | Ala - Pro -Glu-NH-C18H37 · HCl [DICAM 23] |  |  |  |  | S. aureus T growth, % of controls (S. aureus T): ≈ 25 % of controls; IC50 ([1]; modified MTT, 48 h exposure, 0.8–200 µM, four parameter logistic fit, ± SD, at least three independent experiments, read-out: IC50 A549): 80.6 ± 0.2 µM; IC50 ([2]; modified MTT, 48 h exposure, 0.8–200 µM, four parameter logistic fit, ± SD, at least three independent experiments, read-out: IC50 HeLa): 13.4 ± 0.9 µM; Leak of calcein from pure POPG LUVs, result in words [3]: full

— article PMC11329928, “Design, synthesis and structure-activity relationship (SAR) studies of an unusual class of non-cationic fatty amine-tripeptide conjugates as novel synthetic antimicrobial agents” (Frontiers in Pharmacology, 2024)
